Test results: US20040087633A1, “Methylidene oxazolidinone compound and preparation method thereof” (Korea Institute of Science and Technology, priority 2002, published 2004)
Values after ≈ are worked out from the molar mass of the structure shown.

How the values were obtained:
Assay in all cases: Anti-microbial activity test in vitro (agar dilution MIC)
VRE C6488 = assay type: cell-based, Enterococcus faecium; conditions: VRE C6488; Agar Dilution method, Mueller Hinton Agar, 18 hours at 37° C.
In short: (§1)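 Agar dilution MIC on Mueller Hinton agar with two-fold compound dilutions; plates incubated 18 h at 37 °C. MIC (μg/ml) read visually; linezolid and vancomycin run as comparators.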

VRE C6487 = assay type: cell-based, Enterococcus faecium; conditions: VRE C6487; Agar Dilution method, Mueller Hinton Agar, 18 hours at 37° C.
In short: as §1

S. epidermidis C2235 = assay type: cell-based; conditions: S. epidermidis C2235; Agar Dilution method, Mueller Hinton Agar, 18 hours at 37° C.
In short: as §1

S. epidermidis ATCC12228 = assay type: cell-based; conditions: S. epidermidis ATCC12228; Agar Dilution method, Mueller Hinton Agar, 18 hours at 37° C.
In short: as §1

S. epidermidis C2230 = assay type: cell-based; conditions: S. epidermidis C2230; Agar Dilution method, Mueller Hinton Agar, 18 hours at 37° C.
In short: as §1

E. faecalis C6288 = assay type: cell-based; conditions: E. faecalis C6288; Agar Dilution method, Mueller Hinton Agar, 18 hours at 37° C.
In short: as §1

E. faecium C2252 = assay type: cell-based; conditions: E. faecium C2252; Agar Dilution method, Mueller Hinton Agar, 18 hours at 37° C.
In short: as §1

E. faecalis ATCC29212 = assay type: cell-based; conditions: E. faecalis ATCC29212; Agar Dilution method, Mueller Hinton Agar, 18 hours at 37° C.
In short: as §1

S. pyogenes C6012 = assay type: cell-based; conditions: S. pyogenes C6012; Agar Dilution method, Mueller Hinton Agar, 18 hours at 37° C.
In short: as §1

S. aureus ATCC 29213 = assay type: cell-based; conditions: Agar Dilution method, Mueller Hinton Agar, 18 hours at 37° C.
In short: as §1

E. faecalis C6291 = assay type: cell-based; conditions: E. faecalis C6291; Agar Dilution method, Mueller Hinton Agar, 18 hours at 37° C.
In short: as §1

S. pyogenes ATCC8668 = assay type: cell-based; conditions: S. pyogenes ATCC8668; Agar Dilution method, Mueller Hinton Agar, 18 hours at 37° C.
In short: as §1

S. pyogenes C6003 = assay type: cell-based; conditions: S. pyogenes C6003; Agar Dilution method, Mueller Hinton Agar, 18 hours at 37° C.
In short: as §1

E. faecium C6301 = assay type: cell-based; conditions: E. faecium C6301; Agar Dilution method, Mueller Hinton Agar, 18 hours at 37° C.
In short: as §1

MRSA C2207 = assay type: cell-based, Staphylococcus aureus; conditions: MRSA C2207; Agar Dilution method, Mueller Hinton Agar, 18 hours at 37° C.
In short: as §1

MRSA C6068 = assay type: cell-based, Staphylococcus aureus; conditions: MRSA C6068; Agar Dilution method, Mueller Hinton Agar, 18 hours at 37° C.
In short: as §1

MSSA C7142 = assay type: cell-based, Staphylococcus aureus; conditions: MSSA C7142; Agar Dilution method, Mueller Hinton Agar, 18 hours at 37° C.
In short: as §1

MSSA C2214 = assay type: cell-based, Staphylococcus aureus; conditions: MSSA C2214; Agar Dilution method, Mueller Hinton Agar, 18 hours at 37° C.
In short: as §1

CRSA C6043 = assay type: cell-based, Staphylococcus aureus; conditions: CRSA C6043; Agar Dilution method, Mueller Hinton Agar, 18 hours at 37° C.
In short: as §1

MRSA C5100 = assay type: cell-based, Staphylococcus aureus; conditions: MRSA C5100; Agar Dilution method, Mueller Hinton Agar, 18 hours at 37° C.
In short: as §1

CRSA C1062 = assay type: cell-based, Staphylococcus aureus; conditions: CRSA C1062; Agar Dilution method, Mueller Hinton Agar, 18 hours at 37° C.
In short: as §1

| Minimum inhibition concentration (MIC) (VRE C6488) | Minimum inhibition concentration (MIC) (VRE C6487) | Minimum inhibition concentration (MIC) (S. epidermidis C2235) | Minimum inhibition concentration (MIC) (S. epidermidis ATCC12228) | Minimum inhibition concentration (MIC) (S. epidermidis C2230) | Minimum inhibition concentration (MIC) (E. faecalis C6288) | Minimum inhibition concentration (MIC) (E. faecium C2252) | Minimum inhibition concentration (MIC) (E. faecalis ATCC29212) | Minimum inhibition concentration (MIC) (S. pyogenes C6012) | Minimum inhibition concentration (MIC) (S. aureus ATCC 29213) | Minimum inhibition concentration (MIC) (E. faecalis C6291) | Minimum inhibition concentration (MIC) (S. pyogenes ATCC8668) | Minimum inhibition concentration (MIC) (S. pyogenes C6003) | Minimum inhibition concentration (MIC) (E. faecium C6301) | Minimum inhibition concentration (MIC) (MRSA C2207) | Minimum inhibition concentration (MIC) (MRSA C6068) | Minimum inhibition concentration (MIC) (MSSA C7142) | Minimum inhibition concentration (MIC) (MSSA C2214) | Minimum inhibition concentration (MIC) (CRSA C6043) | Minimum inhibition concentration (MIC) (MRSA C5100) | Structure (SMILES) | also measured |
| --- | --- | --- | --- | --- | --- | --- | --- | --- | --- | --- | --- | --- | --- | --- | --- | --- | --- | --- | --- | --- | --- |
| 8 µg/mL (≈ 20.5 µM) | 2 µg/mL (≈ 5.14 µM) | 8 µg/mL (≈ 20.5 µM) | 1 µg/mL (≈ 2.57 µM) | 8 µg/mL (≈ 20.5 µM) | 16 µg/mL (≈ 41.1 µM) | 8 µg/mL (≈ 20.5 µM) | 16 µg/mL (≈ 41.1 µM) | 16 µg/mL (≈ 41.1 µM) | 8 µg/mL (≈ 20.5 µM) | 16 µg/mL (≈ 41.1 µM) | 8 µg/mL (≈ 20.5 µM) | 0.2 µg/mL (≈ 0.514 µM) | 8 µg/mL (≈ 20.5 µM) | 8 µg/mL (≈ 20.5 µM) | 16 µg/mL (≈ 41.1 µM) | 16 µg/mL (≈ 41.1 µM) | 16 µg/mL (≈ 41.1 µM) | 16 µg/mL (≈ 41.1 µM) | 8 µg/mL (≈ 20.5 µM) | CC(=O)C=C1CCN(c2ccc(N3C[C@H](CNC(C)=O)OC3=O)cc2F)CC1 [Compound 12, N-[[(5S)-3-[3-fluoro-4-(4-methylcarbonylmethylidene-piperidinyl)phenyl]-2-oxo-5-oxazolidinyl]methyl]acetamide] | Minimum inhibition concentration (MIC) (CRSA C1062): 8 µg/mL (≈ 20.5 µM) |
| 4 µg/mL (≈ 9.56 µM) | 4 µg/mL (≈ 9.56 µM) | 8 µg/mL (≈ 19.1 µM) | 2 µg/mL (≈ 4.78 µM) | 16 µg/mL (≈ 38.2 µM) | 8 µg/mL (≈ 19.1 µM) | 8 µg/mL (≈ 19.1 µM) | 16 µg/mL (≈ 38.2 µM) | 2 µg/mL (≈ 4.78 µM) | 16 µg/mL (≈ 38.2 µM) | 8 µg/mL (≈ 19.1 µM) | 2 µg/mL (≈ 4.78 µM) | 8 µg/mL (≈ 19.1 µM) | 8 µg/mL (≈ 19.1 µM) | 16 µg/mL (≈ 38.2 µM) | 8 µg/mL (≈ 19.1 µM) | 16 µg/mL (≈ 38.2 µM) | 16 µg/mL (≈ 38.2 µM) | 16 µg/mL (≈ 38.2 µM) | 8 µg/mL (≈ 19.1 µM) | CON=C(C)C=C1CCN(c2ccc(N3C[C@H](CNC(C)=O)OC3=O)cc2F)CC1 [Compound 21, N-[[(5S)-3-[3-fluoro-4-(4-(2-methoxyiminopropylidene)-piperidinyl)phenyl]-2-oxo-5-oxazolidinyl]methyl]acetamide] | Minimum inhibition concentration (MIC) (CRSA C1062): 32 µg/mL (≈ 76.5 µM) |
| 4 µg/mL (≈ 9.89 µM) | 4 µg/mL (≈ 9.89 µM) | 2 µg/mL (≈ 4.95 µM) | 1 µg/mL (≈ 2.47 µM) | 4 µg/mL (≈ 9.89 µM) | 2 µg/mL (≈ 4.95 µM) | 4 µg/mL (≈ 9.89 µM) | 4 µg/mL (≈ 9.89 µM) | 1 µg/mL (≈ 2.47 µM) | 8 µg/mL (≈ 19.8 µM) | 4 µg/mL (≈ 9.89 µM) | 1 µg/mL (≈ 2.47 µM) | 2 µg/mL (≈ 4.95 µM) | 4 µg/mL (≈ 9.89 µM) | 4 µg/mL (≈ 9.89 µM) | 4 µg/mL (≈ 9.89 µM) | 4 µg/mL (≈ 9.89 µM) | 8 µg/mL (≈ 19.8 µM) | 4 µg/mL (≈ 9.89 µM) | 4 µg/mL (≈ 9.89 µM) | CON=CC=C1CCN(c2ccc(N3C[C@H](CNC(C)=O)OC3=O)cc2F)CC1 [Compound 19, N-[[(5S)-3-[3-fluoro-4-(4-(2-methoxyiminoethylidene)-piperidinyl)phenyl]-2-oxo-5-oxazolidinyl]methyl]acetamide] | Minimum inhibition concentration (MIC) (CRSA C1062): 4 µg/mL (≈ 9.89 µM) |
| 1 µg/mL (≈ 2.59 µM) | 0.5 µg/mL (≈ 1.29 µM) | 2 µg/mL (≈ 5.18 µM) | 0.5 µg/mL (≈ 1.29 µM) | 2 µg/mL (≈ 5.18 µM) | 2 µg/mL (≈ 5.18 µM) | 2 µg/mL (≈ 5.18 µM) | 2 µg/mL (≈ 5.18 µM) | 2 µg/mL (≈ 5.18 µM) | 2 µg/mL (≈ 5.18 µM) | 2 µg/mL (≈ 5.18 µM) | 2 µg/mL (≈ 5.18 µM) | 0.5 µg/mL (≈ 1.29 µM) | 2 µg/mL (≈ 5.18 µM) | 2 µg/mL (≈ 5.18 µM) | 2 µg/mL (≈ 5.18 µM) | 2 µg/mL (≈ 5.18 µM) | 2 µg/mL (≈ 5.18 µM) | 2 µg/mL (≈ 5.18 µM) | 2 µg/mL (≈ 5.18 µM) | CC(=O)NC[C@H]1CN(c2ccc(N3CCC(=C(C)C#N)CC3)c(F)c2)C(=O)O1 [Compound 16, N-[[(5S)-3-[3-fluoro-4-(4-(1-cyanoethylidene)piperidinyl)-phenyl]-2-oxo-5-oxazolidinyl]methyl]acetamide] | Minimum inhibition concentration (MIC) (CRSA C1062): 2 µg/mL (≈ 5.18 µM) |
| 4 µg/mL (≈ 10.2 µM) | 4 µg/mL (≈ 10.2 µM) | 4 µg/mL (≈ 10.2 µM) | 1 µg/mL (≈ 2.56 µM) | 4 µg/mL (≈ 10.2 µM) | 4 µg/mL (≈ 10.2 µM) | 4 µg/mL (≈ 10.2 µM) | 8 µg/mL (≈ 20.5 µM) | 1 µg/mL (≈ 2.56 µM) | 8 µg/mL (≈ 20.5 µM) | 4 µg/mL (≈ 10.2 µM) | 2 µg/mL (≈ 5.12 µM) | 4 µg/mL (≈ 10.2 µM) | 4 µg/mL (≈ 10.2 µM) | 8 µg/mL (≈ 20.5 µM) | 4 µg/mL (≈ 10.2 µM) | 8 µg/mL (≈ 20.5 µM) | 8 µg/mL (≈ 20.5 µM) | 8 µg/mL (≈ 20.5 µM) | 4 µg/mL (≈ 10.2 µM) | CC(=O)NC[C@H]1CN(c2ccc(N3CCC(=CC=NO)CC3)c(F)c2)C(=O)O1 [Compound 18, N-[[(5S)-3-[3-fluoro-4-(4-(2-hydroxyiminoethylidene)-piperidinyl)phenyl]-2-oxo-5-oxazolidinyl]methyl]acetamide] | Minimum inhibition concentration (MIC) (CRSA C1062): 8 µg/mL (≈ 20.5 µM) |
| 8 µg/mL (≈ 20.4 µM) | 1 µg/mL (≈ 2.55 µM) | 1 µg/mL (≈ 2.55 µM) | 1 µg/mL (≈ 2.55 µM) | 4 µg/mL (≈ 10.2 µM) | 4 µg/mL (≈ 10.2 µM) | 8 µg/mL (≈ 20.4 µM) | 8 µg/mL (≈ 20.4 µM) | 8 µg/mL (≈ 20.4 µM) | 8 µg/mL (≈ 20.4 µM) | 8 µg/mL (≈ 20.4 µM) | 4 µg/mL (≈ 10.2 µM) | 2 µg/mL (≈ 5.11 µM) | 4 µg/mL (≈ 10.2 µM) | 8 µg/mL (≈ 20.4 µM) | 4 µg/mL (≈ 10.2 µM) | 8 µg/mL (≈ 20.4 µM) | 8 µg/mL (≈ 20.4 µM) | 8 µg/mL (≈ 20.4 µM) | 4 µg/mL (≈ 10.2 µM) | CC(=O)NC[C@H]1CN(c2ccc(N3CCC(=CC(=O)O)CC3)c(F)c2)C(=O)O1 [Compound 14, N-[[(5S)-3-[3-fluoro-4-(4-carboxymethylidenepiperidinyl)-phenyl]-2-oxo-5-oxazolidinyl]methyl]acetamide] | Minimum inhibition concentration (MIC) (CRSA C1062): 16 µg/mL (≈ 40.9 µM) |
